Our source for the melting point values is a melting point compilation (Tetko et al.; mined from patent text by program, amines drawn as free bases though some values may be those of a salt).

The structures appear in SMILES notation.

Broadly, the melting point is the temperature of the solid-liquid transition. `CS(=O)(=O)OC[C@@H]1Cc2cc3ccccc3n2C[C@H]1COS(C)(=O)=O` (relative stereo) gave a melting point of 139 to 141 °C.
In the case of `O=C1C(c2ccccc2)=C(c2ccccc2)C(=O)N1CC(=O)N1c2ccccc2N(Cc2ccccc2)C(=O)C2CCCC21` (centres undefined) it was 207 to 208 °C.
The result for `CC(C)OC(=O)CCC1CCCCC1(c1ccc(O)c(C(C)(C)C)c1)c1ccc(O)c(C(C)(C)C)c1` (centres undefined) reads 172 °C; that for `COc1ccc(-c2sc3cc(OC)ccc3c2C(=O)c2cc(OC)cc(OC)c2)cc1`, 114 to 120 °C; that for `CCCN(CCC)Cn1cnc2c1c(=O)n(C)c(=O)n2C`, 72 to 73 °C.
In the case of `O=C1C(=O)c2ccc(Br)cc2C2=C1SCC1(CCN(CC(O)COc3ccc(Cl)cc3)CC1)O2` (centres undefined) it was 150 to 152 °C; in that of `O=C1C2=C(CCCC2)C(Cl)N1c1ccc(Cl)cc1F` (centres undefined), 89 to 90 °C; in that of `CC(C)CCOc1c(-c2ccc(S(N)(=O)=O)cc2)cnn(-c2ccc(F)c(F)c2)c1=O`, 149 to 151 °C.
The compound `Cn1c(COc2cccc(C(=O)O)c2)nc2ccc(Oc3cccnc3)cc21` came in with a melting point of 240 to 245 °C.
The result for `COc1ccc(-n2nc(CBr)cc2-c2ccc(Cl)cc2)cc1` reads 88 to 90 °C; that for `C=CCc1cc2c(c(CC=C)c1O)NC(=O)CO2`, 114 to 115 °C; that for `CCOC(=O)c1sc(I)nc1C(F)(F)F`, 75 to 76 °C.
For the compound `CN(C1=CC(=O)CC1)[C@@H]1c2cc(C#N)ccc2OC(C)(C)[C@H]1O` (relative stereo), the melting point was 271 to 274 °C.
In the case of `Cc1oc(-c2ccccc2)nc1COc1ccc(CON=C(CCCCCCC(=O)O)c2ccccc2)cc1` it was 88 to 89 °C; in that of `Cc1cccc(C)c1C#CCOCCn1cnc2c(N)nc3ccccc3c21`, 200 to 201 °C.
As to `COc1ccc(CC(=O)NC(NC(=NC#N)Nc2ccccc2C)C(C)(C)C)cc1` (centres undefined), the melting point came out at 174 °C.
Regarding `COc1ccc(CC2Cc3cc(C)cnc3C(OC(C)=O)C2)cc1` (single isomer, unassigned; (+)), the melting point fell in the range of 94 to 98 °C.
`COc1cc(OC)nc(OC)c1` displayed a melting point of 47 to 49 °C.
In turn, `CC(C)(C)C(=O)OCC(COC(=O)C(C)(C)C)OCn1cnc2c(=O)[nH]c(N)nc21` gave a melting point of 230 to 232 °C.
In the case of `CS(=O)(=O)Oc1cccc(N2CCN(CCCCCC(=O)N3Cc4ccccc4C3)CC2)c1` it was 141 °C.
In the case of `CCOc1cc(Cn2[nH]c(N)cc2=O)ccc1Cl` it was 143 °C; in that of `CONCc1nc2c(N)nc3ccccc3c2n1CC1(O)CCC1`, 178 to 181 °C; in that of `CC(C)NC(=O)OCC(=O)c1ccccc1`, 108 to 110 °C.
In the case of `CC(C)(C)CC(=O)c1c(-c2ccc3cc(OCC(=O)O)ccc3c2)oc2ccccc12` it was 207 to 209 °C; in that of `OCCCCCc1ccc2ccccc2c1O`, 43 to 46 °C.
`CN1C(=O)[C@H](NC(=O)/C=C/c2ccc(Br)cc2)N=C(c2ccccc2)c2ccccc21`: the melting point was 121 to 124 °C.
The result for `CCC(Cc1ccc(OC)c(C(=O)NCc2ccc(C(F)(F)F)cc2)c1)C(=O)O` (centres undefined) reads 128 to 130 °C.
The result for `NC(=O)c1ccc(CCCNCC(O)c2ccccc2)s1` (centres undefined) reads 94 to 96 °C.
The result for `COc1cc2ncc(C#N)c(Nc3ccc(Sc4nccn4C)c(Cl)c3)c2cc1OC` reads 302 to 307 °C.
On to `O=C1N(CCCl)c2ccc(F)cc2C12SCCCS2`, for which the melting point stood at 122 °C.
The result for `CS(=O)(=O)c1ccc(C(CC2CCCC2)C(=O)Nc2ccc(Br)cn2)cc1[N+](=O)[O-]` (centres undefined) reads 80 to 83 °C.
In turn, `CC(=O)NCc1ccc(C(=O)CCCN2CCC(c3noc4cc(F)ccc34)CC2)s1` gave a melting point of 140 to 142 °C.
In the case of `COc1ccc(-c2nc(Sc3ccc(C)cc3)[nH]c2-c2ccc(OC)cc2)cc1` it was 181 °C; in that of `c1ccc2c(c1)CCc1c-2n[nH]c1-c1ccncc1`, 229 °C.
`CCCCCCCNC(=O)Nc1ccc(N(C)C)cc1C(=O)N(CC1CCN(C(c2ccccc2)c2ccccc2)CC1)N(C)C` returned a melting point of 178 to 179 °C.
The result for `O=C(N[C@@H](CCCCNSc1ncccc1[N+](=O)[O-])C(=O)N[C@H](CCC(=O)N1c2ccccc2C[C@H]1C(=O)O)C(=O)O)OCc1ccc2c(c1)OCO2` reads 100 to 110 °C.
In the case of `CN1CCC(OC2c3ccccc3CCn3c(I)cnc32)CC1` (centres undefined) it was 163 °C; in that of `Oc1cccc(-c2nn(C3CCCC3)c3c(Cl)cccc23)c1F`, 150 to 151 °C.
For the compound `O=[N+]([O-])c1cc(Br)cc2[nH]c(CCl)nc12`, the melting point was 148 to 150 °C.
The result for `CCCc1c(OCCOc2cccc3c2CCCC3)ccc2c1OC(CCC(=O)O)(CCC(=O)O)CC2=O` reads 160 to 162 °C.
The result for `CC(CO)NC(=O)c1cnc(N2CCC(N3C(=O)OCc4ccccc43)CC2)c(Cl)c1` (centres undefined) reads 125 to 128 °C.
For `Cc1cn(Cc2ccc3c(c2)-c2[nH]nc(-c4ccsc4)c2C3)cn1`, the melting point was in the range of 122 to 125 °C.
The result for `ClCCCN1c2ccccc2OCOc2ccc(Cl)cc21` reads 105 to 108 °C; that for `CCCc1c(C(=O)C(C)C)c2ccc(C(=O)NO)cc2n1Cc1ccccc1Cl`, 185 to 186 °C.
The result for `CCOC(=O)CCc1cn(Cc2cccnc2OCc2csc(-c3ccccc3)n2)nc1-c1ccccc1` reads 88 to 89 °C; that for `Cc1c2n(c3ccccc13)C(=O)C(Cc1cncn1C)CC2` (centres undefined), 117 to 118 °C; that for `CC(=O)Nc1ccc2nc(CN3CCCCC3)ccc2c1`, 182 to 184 °C.
The result for `O=C1NC(CN2CCN(c3ccccc3)CC2)Cc2c[nH]c3cccc1c23` (centres undefined) reads 184 to 185 °C.
In turn, `COC(=O)c1ccc2c(c1)CN(c1cc3c(cc1F)c(=O)c(C(=O)O)cn3C1CC1)C2` returned a melting point of 279 to 285 °C.
On to `O=C(Nc1ccc(C(CC2CCCC2)C(=O)Nc2nccs2)cc1)c1ccc([N+](=O)[O-])cc1` (centres undefined), for which the melting point lay in the range of 236 to 238 °C.
In the case of `CC(=O)Nc1ccc(CN2C(=O)[C@H]3CCC[C@H]3N(C(=O)CN3C(=O)c4ccccc4C3=O)c3ccccc32)cc1` (relative stereo) it was 303 to 306 °C; in that of `N=C(N)Nc1nc2cc(Cl)c(Cl)cc2[nH]1`, above 260 °C.
As to `CCOC(=O)c1c[nH]c2cc(C(=O)NCCc3ccc(Cl)cc3)nn2c1=O`, the melting point was above 300 °C.
The result for `CCOC(=O)c1cc(C)n(-c2cccc(C(N)=O)c2)c1-c1ccccc1` reads 209 to 210 °C; that for `CCCCCCCCCCCC(=O)c1ccc(-c2ccc(O)c(F)c2)cc1`, 123 to 124 °C; that for `O=C(O)c1cnc(N2CCCC2)c(OCC2CCCC2)n1`, 204 to 206 °C.
In the case of `CC1CC(=O)NN=C1c1ccc2c(c1)N(CC(=O)N1CCN(CCO)CC1)CS2=O` (centres undefined) it was 231 to 233 °C.
The result for `O=C1NCN(c2ccccc2)C12CCN(CC1CCc3ccc(F)cc3C1O)CC2` (centres undefined) reads 210 to 212 °C; that for `CC(C)(C)OC(=O)NCC(N)c1c[nH]c2ccc(Br)cc12` (centres undefined), 151 °C; that for `N#Cc1ccccc1OCCCN1CCC(NC(=O)C2CCCCC2)CC1`, 110 to 112 °C.
With `C(=Cc1ccc(-c2nc(-c3ccc(C=Cc4ccccc4)cc3)n(-c3ccccc3)n2)cc1)c1ccccc1`, the melting point is 218 to 220 °C.
The result for `CC(O)(c1ccccc1)c1cc(Cl)ccc1N` (centres undefined) reads 93 to 94 °C; that for `COc1ccc(N2CCN(c3c(C)c(C)c4c(c3C)C(N3CCN(C)CC3)C(C)(C)O4)CC2)cc1` (centres undefined), 94 to 96 °C; that for `CCOC(=O)C1=C(N)NC2=C(C(=O)CCC2)C1C` (centres undefined), 236 °C.
In the case of `CCCc1nn(-c2ccc(C(F)(F)F)cn2)cc1CCCOc1ccc(CCC(=O)O)c(OCC)c1` it was 119 to 120 °C; in that of `CC1(C)OC(=O)Nc2ccc(-c3ccc(F)cc3)cc21`, 232 to 233 °C.
Take `O=C(c1ccccc1)c1ccc(NC(=O)c2cc(Cl)ccc2Cl)cc1`: the melting point lay within 150 to 153 °C.
Take `CCNC(=O)OC1CC(C)(C)N(OC(=O)NCC)C(C)(C)C1`: the melting point was in the range of 149 to 151 °C.
`CC(C)(C)OC(=O)N1CCN(C(=O)/C=C/c2ccc(Sc3ccc4c(c3)OCCO4)c([N+](=O)[O-])c2)CC1` showed a melting point of 165 to 167 °C.
The result for `COc1cccc(-c2ccc(C(=O)N(Cc3cccc(O)c3)C3CC3)s2)c1F` reads 150 °C; that for `CC(=O)Nc1cccc(NC(=O)Cc2ccc(-n3c(-c4cccnc4N)nc4ccc(C)nc43)cc2)c1`, 207 to 209 °C.
The result for `S=C(NC1CC1)N1CCc2[nH]cnc2C1` reads 185 °C.
In turn, `COc1ccc(C(=O)O)c(OCc2ccccc2)c1` came in with a melting point of 99 to 101 °C.
Take `O=C(NCc1ccc(Cl)cc1)c1cnc2c(F)cc(CCCCCO)cc2c1O`: the melting point lay within 193 to 195 °C.
In the case of `Cc1noc(NS(=O)(=O)c2ccccc2-c2ccc(-c3ncco3)cc2CN(C)C(=O)c2ccc(Cl)cc2)c1C` it was 122 to 132 °C; in that of `CCOC(=O)Cc1ccc(OCCCN2C(=O)c3ccccc3C2=O)c(OC)c1`, 70 to 72 °C; in that of `CCC(O)(c1ccc(Cl)cc1)c1ccc(OCc2cccc(C)n2)cc1` (centres undefined), 100 to 101 °C.
In the case of `Cc1nc2cnccc2n1-c1ccc(Cn2c(=O)sc3ccccc32)cc1`, the melting point is 198 to 201 °C.
In the case of `CCOC(=O)C(=O)Oc1cccc(-c2cn3c(n2)sc2ccccc23)c1` it was 120 to 121 °C.
In the case of `CCn1cc(C(=O)O)c(=O)c2cc(F)c(N3CCN(C)C(c4sc5ccccc5c4C)C3)cc21` (centres undefined) it was 253 to 254 °C.
For the compound `CC(=O)C=Cc1c(C)c(C)c2c(c1C)CC(C)(C)O2`, the melting point was in the range of 86 to 87 °C.
The result for `CCNc1ncnc(NCC)c1[N+](=O)[O-]` reads 80 to 81 °C.
In the case of `CCOc1nc(C)c(N2CCCn3c2nc2c(Cl)ccc(C(OC(F)F)C(F)(F)F)c23)c(C)n1` (centres undefined) it was 218 to 220 °C; in that of `CCC(C)(C)NC(=O)C(=O)c1ccccc1`, 29 to 30 °C.
